Patent US8629163B2, “Tetrakis-quaternary ammonium salts and methods for modulating neuronal nicotinic acteylcholine receptors” (University of Kentucky Research Foundation, priority 2007, dated 2014)

Legend:
rat striatal slices = experiment: Nicotine-evoked [^3H]dopamine release (overflow) from superfused rat striatal slices; assay type: cell-based; conditions: for inhibition at 0.1 µM: % inhibition at 100 nM analog, 10 μM S(-)nicotine, rat striatal slices, read-out: Inhibition of Nicotine-evoked [^3H]DA release; for IC50: Rattus norvegicus, full concentration response assay, 4-5 independent experiments in duplicate, 10 μM nicotine, read-out: IC50, inhibition of nicotine-evoked [^3H]DA release (converted)
Method: Rat striatal slices (500 μm thickness, 6 mg wet weight) were incubated for 30 minutes in Krebs buffer (118 mM NaCl, 4.7 mM KCl, 1.2 mM MgCl2, 1.0 mM NaH2PO4, 1.3 mM CaCl2, 11.1 mM glucose, 25 mM NaHCO3, 0.11 mM L-ascorbic acid, and 0.004 mM disodium EDTA; pH 7.4, and saturated with 95% O2/5% CO2) in a metabolic shaker at 34° C. Slices were rinsed with 15 mL of fresh buffer and incubated for an additional 30 minutes in fresh buffer containing 0.1 μM [^3H]dopamine (DA; 6 slices/3 mL). Subsequently, slices were rinsed with 15 mL of fresh buffer and each slice transferred to a superfusion chamber. Slices were superfused (0.6 mL/min) for 60 minutes with Krebs buffer containing nomifensine (10 μM) and pargyline (10 μM) and maintained at 34° C., pH 7.4, with continual aeration (95% O2/5% CO2). Two 4-minute samples (2.4 mL each) were collected to determine basal outflow of [^3H]DA. Slices were superfused for 36 min following addition of the analogs to the superfusion buffer after the collection of the second sample and nine 4-minute samples were collected. For initial probe assays, the concentration of analog was 100 nM. For concentration-response studies, the concentration of analog varied from 1 nM to 10 μM, and the effect of each concentration was determined using striatal slices obtained from an individual animal (repeated measures design). Subsequently, S(−)nicotine (10 μM) was added to the buffer and nine additional 4-minute samples were collected. At the end of the experiment, each slice was solubilized and the [^3H] content of the tissue determined.
Radioactivity in the superfusate and tissue samples was determined by liquid scintillation spectroscopy. Fractional release for tritium collected in each sample was divided by the total tritium present in the tissue at the time of sample collection and was expressed as a percentage of total tritium. Basal [^3H]outflow was calculated from the average of the tritium collected in the two […] samples just before addition of the analog. The sum of the increase in collected tritium resulting from either exposure to the test compound or exposure to S(−)nicotine in the absence and presence of the test compound equaled total [^3H]overflow. [^3H]Overflow was calculated by subtracting the [^3H]outflow during an equivalent period of prestimulation from the values in samples collected during and after drug exposure. Inasmuch as the radiolabelled compounds were not separated and identified, the tritium collected in superfusate is referred to as either [^3H]outflow or [^3H]overflow, rather than as [^3H]DA. [^3H]Overflow primarily represents [^3H]DA in the presence of nomifensine and pargyline in the superfusion buffer. […]
Analogs were also evaluated for their ability to inhibit NIC evoked [^3H]DA release. Antagonist activity was evaluated by comparing the NIC-evoked [^3H]overflow in the absence and presence of the analogs (see Table 1). […] Data are expressed as M±SEM. Control represents absence of compound. N=4/analog, *p<0.05
(§1) ^aData are % inhibition at 100 nM concentration of analog for 3-4 independent experiments. Specific binding in the [^3H]NIC binding assay is calculated as the difference between the total binding of 3 nM [^3H]NIC and nonspecific binding in the presence of 10 μM cytisine. Specific binding for the [^3H]MLA binding assay is calculated as the difference between the total binding of 3 nM [^3H]MLA to the receptors alone and its nonspecific binding in the presence of 10 μM nicotine. Analog-induced inhibition of nicotine-evoked [^3H]DA release is calculated as a percent of that in the absence of analog.
^bIC50 from full concentration response assay; data from 4-5 independent experiments, each performed in duplicate.

[1] = molecular target: T1, α7-type neuronal nicotinic acetylcholine receptors (Rattus norvegicus, UniProt Q05941); experiment: Inhibition of [^3H]methyllycaconitine (MLA) binding to rat brain membranes; conditions: % inhibition at 100 nM analog; 3 nM [^3H]MLA; nonspecific 10 μM nicotine; 3-4 independent experiments
T1 construct: The brain tissue was homogenized with a Tekmar Polytron; from tissue; host or cells: rat brain membranes (whole brain without cortex and cerebellum)
T1 sequence (Q05941 23-502): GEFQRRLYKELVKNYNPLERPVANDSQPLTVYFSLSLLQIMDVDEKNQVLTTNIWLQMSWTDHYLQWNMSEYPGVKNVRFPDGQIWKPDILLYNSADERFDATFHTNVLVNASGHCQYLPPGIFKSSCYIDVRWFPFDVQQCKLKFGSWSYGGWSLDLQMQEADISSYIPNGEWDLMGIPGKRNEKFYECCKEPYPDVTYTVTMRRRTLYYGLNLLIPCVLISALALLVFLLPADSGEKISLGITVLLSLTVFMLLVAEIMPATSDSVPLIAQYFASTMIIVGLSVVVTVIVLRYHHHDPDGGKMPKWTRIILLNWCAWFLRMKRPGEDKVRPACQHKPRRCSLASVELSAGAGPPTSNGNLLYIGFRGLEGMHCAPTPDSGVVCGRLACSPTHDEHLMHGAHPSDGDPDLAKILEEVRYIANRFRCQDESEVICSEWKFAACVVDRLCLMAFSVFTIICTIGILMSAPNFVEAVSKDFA
Method: (§2) Rat brain was dissected into the whole brain tissue without cortex and cerebellum and was frozen in liquid nitrogen and stored at −70° C. until use. The brain tissue was homogenized with a Tekmar Polytron (setting 40) in 20 volumes of ice-cold hypotonic buffer (2 mM HEPES, 14.4 mM NaCl, 0.15 mM KCl, 0.2 mM CaCl2 and […], pH=7.5). The homogenate was centrifuged at 25,000×g for 17 minutes at 4° C. The pellet was resuspended in 20 volumes of the same buffer, and incubated for 10 min at 37° C. The resuspension was cooled to 4° C. and then centrifuged at the above parameters. The pellet was resuspended by sonicaton and centrifuged using the same conditions. The final pellet was stored at −20° C. under 10 ml of the incubation buffer and was suspended just before incubation with radioligand.
(§3) The binding of [^3H]NIC and [^3H]MLA to probe α4β2 and α7-type neuronal nicotinic acetylcholine receptors, respectively, was determined using [^3H]NIC (67 Ci/mmol) and [^3H]MLA (60 Ci/mmol), purchased from Perkin Elmer Life Sciences, Boston, Mass., U.S.A. and American Radiolabel Chemicals, Inc., St. Louis, Mo., U.S.A. Binding was performed in duplicate, in a final volume of 250 μl of the incubation medium, containing 20 mM HEPES, 144 mM NaCl, 1.5 mM KCl, 2 mM CaCl2, and 1 mM MgSO4, pH=7.5. Reaction was initiated by the addition of 100 μL of membrane suspension to the samples containing a desired concentration of test compounds and 3 nM [^3H]NIC or 3 nM [^3H]MLA (final concentrations) and incubated for 60 min at room temperature. Total binding was measured in the absence of unlabelled ligand and nonspecific binding was determined in the presence of 10 μM cytisine, for [^3H]NIC binding, and 10 μM nicotine for [^3H]MLA. The binding reaction was terminated by dilution of samples with 3 mL of ice-cold incubation buffer followed by immediate filtration through Unifilter-96 GFB-filter plates presoaked in 0.5% polyethylenimine using a Filtermate Harvester (Perkin Elmer, Shelton, Conn., U.S.A.). Filters were rinsed five times with 350 μL of ice-cold buffer, and then filter plates were dried at 48° C. for 60 min, bottom sealed and each well filled with 40 μL of Packard Microscint-20 cocktail. After 60 min of gentle shaking, the filter plates were top sealed and radioactivity measured using a Packard TopCount NXT scintillation counter. CPMs were processed through a Packard Windows NT operating system. Protein was measured using the Bradford dye-binding procedure with bovine serum albumin as the standard.
(§4) The ability of a probe concentration of 100 nM of the tetrakis-quaternary ammonium salts to inhibit specific binding was evaluated.
as §1

[2] = molecular target: T2, α4β2 neuronal nicotinic acetylcholine receptors (Rattus norvegicus, UniProt P09483+P12390); experiment: Inhibition of [^3H]nicotine (NIC) binding to rat brain membranes; conditions: % inhibition at 100 nM analog; 3 nM [^3H]NIC; nonspecific 10 μM cytisine; 3-4 independent experiments
T2 construct: The brain tissue was homogenized with a Tekmar Polytron; from tissue; host or cells: rat brain membranes (whole brain without cortex and cerebellum)
T2 sequence (P09483 31-630): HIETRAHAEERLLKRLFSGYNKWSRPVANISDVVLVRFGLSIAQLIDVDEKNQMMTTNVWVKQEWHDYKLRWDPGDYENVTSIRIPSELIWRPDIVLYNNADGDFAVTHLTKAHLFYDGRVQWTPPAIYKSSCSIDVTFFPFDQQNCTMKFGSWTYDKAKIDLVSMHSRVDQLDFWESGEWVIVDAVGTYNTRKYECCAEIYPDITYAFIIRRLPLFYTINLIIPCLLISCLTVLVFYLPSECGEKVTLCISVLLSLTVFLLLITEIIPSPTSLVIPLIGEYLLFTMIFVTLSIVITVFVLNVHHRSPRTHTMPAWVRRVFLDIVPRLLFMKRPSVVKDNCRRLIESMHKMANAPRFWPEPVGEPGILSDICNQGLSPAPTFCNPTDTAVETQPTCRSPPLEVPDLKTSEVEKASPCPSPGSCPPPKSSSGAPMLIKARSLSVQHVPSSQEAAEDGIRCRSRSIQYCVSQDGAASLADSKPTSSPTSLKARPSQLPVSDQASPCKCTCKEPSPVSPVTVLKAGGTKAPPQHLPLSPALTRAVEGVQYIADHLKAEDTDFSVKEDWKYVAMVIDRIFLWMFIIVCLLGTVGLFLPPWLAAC
T2 sequence (P12390 25-500): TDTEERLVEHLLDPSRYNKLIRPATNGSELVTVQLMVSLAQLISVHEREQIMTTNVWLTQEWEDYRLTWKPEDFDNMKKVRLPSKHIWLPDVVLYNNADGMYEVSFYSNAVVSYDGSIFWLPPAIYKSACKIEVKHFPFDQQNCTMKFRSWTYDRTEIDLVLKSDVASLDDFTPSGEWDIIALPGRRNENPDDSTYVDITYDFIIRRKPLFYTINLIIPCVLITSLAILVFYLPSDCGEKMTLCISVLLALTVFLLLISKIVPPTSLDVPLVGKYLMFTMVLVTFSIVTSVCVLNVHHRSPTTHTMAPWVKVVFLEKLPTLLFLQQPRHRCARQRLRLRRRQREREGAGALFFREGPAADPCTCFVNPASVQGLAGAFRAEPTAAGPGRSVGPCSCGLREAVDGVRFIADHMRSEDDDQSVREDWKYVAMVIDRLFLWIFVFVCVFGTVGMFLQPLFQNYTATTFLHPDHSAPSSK
Method: as §2, §3, §4, §1

In the case of Cc1cc(C)c[n+](CCCC#Cc2cc(C#CCCC[n+]3cc(C)cc(C)c3)c(C#CCCC[n+]3cc(C)cc(C)c3)cc2C#CCCC[n+]2cc(C)cc(C)c2)c1.[Br-].[Br-].[Br-].[Br-], the inhibition at 0.1 µM (rat striatal slices) is reported as 12 ± 5%, the “Inhibition of [^3H]MLA binding” value [1] is reported as 3.9 ± 3.9% and the “Inhibition of [^3H]Nicotine binding” value [2] is reported as 0 ± 05%.

C(#Cc1cc(C#CCCC[n+]2cccc(Cc3ccccc3)c2)c(C#CCCC[n+]2cccc(Cc3ccccc3)c2)cc1C#CCCC[n+]1cccc(Cc2ccccc2)c1)CCC[n+]1cccc(Cc2ccccc2)c1.[Br-].[Br-].[Br-].[Br-] was tested, and the inhibition at 0.1 µM (rat striatal slices) was 17 ± 17%, the “Inhibition of [^3H]MLA binding” value [1] was 53 ± 3.5% and the “Inhibition of [^3H]Nicotine binding” value [2] was 2.9 ± 2.9%.

For Cc1cc[n+](CCCC#Cc2cc(C#CCCC[n+]3ccc(C)c(C)c3)c(C#CCCC[n+]3ccc(C)c(C)c3)cc2C#CCCC[n+]2ccc(C)c(C)c2)cc1C.[Br-].[Br-].[Br-].[Br-], the inhibition at 0.1 µM (rat striatal slices) was 17 ± 6%, the “Inhibition of [^3H]MLA binding” value [1] was 0.6 ± 0.6% and the “Inhibition of [^3H]Nicotine binding” value [2] was 9.8 ± 1.2%.

CN1CCCC1c1ccc[n+](CCCCCc2cc(CCCCC[n+]3cccc(C4CCCN4C)c3)c(CCCCC[n+]3cccc(C4CCCN4C)c3)cc2CCCCC[n+]2cccc(C3CCCN3C)c2)c1.[Br-].[Br-].[Br-].[Br-] (stereo not drawn) was tested, and the inhibition at 0.1 µM (rat striatal slices) was 43 ± 21%, the “Inhibition of [^3H]MLA binding” value [1] was 26 ± 14% and the “Inhibition of [^3H]Nicotine binding” value [2] was 7.4 ± 4.7%.

With [Br-].[Br-].[Br-].[Br-].c1ccc2c[n+](CCCCCc3cc(CCCCC[n+]4ccc5ccccc5c4)c(CCCCC[n+]4ccc5ccccc5c4)cc3CCCCC[n+]3ccc4ccccc4c3)ccc2c1 the inhibition at 0.1 µM (rat striatal slices) was 63 ± 12%, the IC50 (rat striatal slices) was 0.056 µM and the “Inhibition of [^3H]MLA binding” value [1] was 24 ± 13%. The “Inhibition of [^3H]Nicotine binding” value [2] was 6.5 ± 6.5%.

For Cc1ccc[n+](CCCCCc2cc(CCCCC[n+]3cccc(C)c3)c(CCCCC[n+]3cccc(C)c3)cc2CCCCC[n+]2cccc(C)c2)c1.[Br-].[Br-].[Br-].[Br-], the inhibition at 0.1 µM (rat striatal slices) was 8 ± 4%, the “Inhibition of [^3H]MLA binding” value [1] was 12 ± 6.9% and the “Inhibition of [^3H]Nicotine binding” value [2] was 12 ± 4.4%.

With [Br-].[Br-].[Br-].[Br-].c1ccc(Cc2ccc[n+](CCCCCc3cc(CCCCC[n+]4cccc(Cc5ccccc5)c4)c(CCCCC[n+]4cccc(Cc5ccccc5)c4)cc3CCCCC[n+]3cccc(Cc4ccccc4)c3)c2)cc1 the inhibition at 0.1 µM (rat striatal slices) was 54 ± 10%, the IC50 (rat striatal slices) was 0.028 µM and the “Inhibition of [^3H]MLA binding” value [1] was 16 ± 8%. The “Inhibition of [^3H]Nicotine binding” value [2] was 13 ± 3.3%.

For C(#Cc1cc(C#CCCC[n+]2ccc3ccccc3c2)c(C#CCCC[n+]2ccc3ccccc3c2)cc1C#CCCC[n+]1ccc2ccccc2c1)CCC[n+]1ccc2ccccc2c1.[Br-].[Br-].[Br-].[Br-], the inhibition at 0.1 µM (rat striatal slices) was 39 ± 17%, the “Inhibition of [^3H]MLA binding” value [1] was 4.9 ± 3.8% and the “Inhibition of [^3H]Nicotine binding” value [2] was 0 ± 0%.

[Br-].[Br-].[Br-].[Br-].c1c(CCCCC[n+]2ccc3c(c2)CCCC3)c(CCCCC[n+]2ccc3c(c2)CCCC3)cc(CCCCC[n+]2ccc3c(c2)CCCC3)c1CCCCC[n+]1ccc2c(c1)CCCC2 was tested, and the inhibition at 0.1 µM (rat striatal slices) was 27 ± 2%, the IC50 (rat striatal slices) was 0.056 µM and the “Inhibition of [^3H]MLA binding” value [1] was 27 ± 15%. For the same compound, the “Inhibition of [^3H]Nicotine binding” value [2] was 0.9 ± 0.9%.

In the case of CN1CCCC1c1ccc[n+](CCCC#Cc2cc(C#CCCC[n+]3cccc(C4CCCN4C)c3)c(C#CCCC[n+]3cccc(C4CCCN4C)c3)cc2C#CCCC[n+]2cccc(C3CCCN3C)c2)c1.[Br-].[Br-].[Br-].[Br-] (stereo not drawn), the inhibition at 0.1 µM (rat striatal slices) is reported as 31 ± 13%, the “Inhibition of [^3H]MLA binding” value [1] is reported as 15 ± 2.0% and the “Inhibition of [^3H]Nicotine binding” value [2] is reported as 38 ± 7.4%.

For Cc1ccc[n+](CCCC#Cc2cc(C#CCCC[n+]3cccc(C)c3)c(C#CCCC[n+]3cccc(C)c3)cc2C#CCCC[n+]2cccc(C)c2)c1.[Br-].[Br-].[Br-].[Br-], the inhibition at 0.1 µM (rat striatal slices) was 16 ± 13%, the “Inhibition of [^3H]MLA binding” value [1] was 18 ± 7.8% and the “Inhibition of [^3H]Nicotine binding” value [2] was 11 ± 11%.

In the case of Cc1cc(C)c[n+](CCCCCc2cc(CCCCC[n+]3cc(C)cc(C)c3)c(CCCCC[n+]3cc(C)cc(C)c3)cc2CCCCC[n+]2cc(C)cc(C)c2)c1.[Br-].[Br-].[Br-].[Br-], the inhibition at 0.1 µM (rat striatal slices) is reported as 45 ± 14%, the “Inhibition of [^3H]MLA binding” value [1] is reported as 15 ± 8% and the “Inhibition of [^3H]Nicotine binding” value [2] is reported as 3.7 ± 3.7%.

[Br-].[Br-].[Br-].[Br-].c1ccc(-c2ccc[n+](CCCCCc3cc(CCCCC[n+]4cccc(-c5ccccc5)c4)c(CCCCC[n+]4cccc(-c5ccccc5)c4)cc3CCCCC[n+]3cccc(-c4ccccc4)c3)c2)cc1 was tested, and the inhibition at 0.1 µM (rat striatal slices) was 19 ± 15%, the “Inhibition of [^3H]MLA binding” value [1] was 33 ± 17% and the “Inhibition of [^3H]Nicotine binding” value [2] was 6.6 ± 4.5%.

With Cc1cc[n+](CCCC#Cc2cc(C#CCCC[n+]3ccc(C)cc3)c(C#CCCC[n+]3ccc(C)cc3)cc2C#CCCC[n+]2ccc(C)cc2)cc1.[Br-].[Br-].[Br-].[Br-] the inhibition at 0.1 µM (rat striatal slices) was 35 ± 14%, the “Inhibition of [^3H]MLA binding” value [1] was 3.0 ± 3.0% and the “Inhibition of [^3H]Nicotine binding” value [2] was 24 ± 5.5%.

For Cc1cc[n+](CCCCCc2cc(CCCCC[n+]3ccc(C)cc3)c(CCCCC[n+]3ccc(C)cc3)cc2CCCCC[n+]2ccc(C)cc2)cc1.[Br-].[Br-].[Br-].[Br-], the inhibition at 0.1 µM (rat striatal slices) was 46 ± 5%, the “Inhibition of [^3H]MLA binding” value [1] was 8.0 ± 5.3% and the “Inhibition of [^3H]Nicotine binding” value [2] was 12 ± 8.3%.
